Source: paper PMC9061822, “A novel SRSF3 inhibitor, SFI003, exerts anticancer activity against colorectal cancer by modulating the SRSF3/DHCR24/ROS axis” (Cell Death Discovery, 2022)
pIC50: −log10 of the molar value. Entries after “also recorded” stand apart in the source; their conditions may differ. Where two headings read alike, the source gives them in different places. Where a SMILES comes first, the peptide text is derived from it. The star is where a group is joined. Cbz = O=C(OCc1ccccc1)*

Experiments:
[1] = target: T1, SRSF3 (Homo sapiens, UniProt P84103); test: Western blot of SRSF3 protein in HCT-116 and SW480 cells; type: cell-based; parameters: endogenous in cells; host or cells: HCT-116 and SW480; conditions: for effect on SFI003-induced SRSF3 degradation: HCT-116 and SW480, 20 μM SFI003 plus 3 μM MLN4924, 50 μM CHQ or 10 μM MG132 for 12 h
T1 sequence (P84103 1-164): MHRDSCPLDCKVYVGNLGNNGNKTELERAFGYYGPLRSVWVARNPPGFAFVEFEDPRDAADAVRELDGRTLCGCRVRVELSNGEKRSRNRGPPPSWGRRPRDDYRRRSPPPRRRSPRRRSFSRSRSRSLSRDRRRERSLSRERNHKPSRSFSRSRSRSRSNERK
Method: (§1) After cell lysates were prepared, protein concentrations were determined by a BCA assay (TaKaRa, Kusatsu, Japan). Equal amounts of protein were separated by SDS–PAGE and transferred to polyvinylidene difluoride membranes. After normalization, the blots were probed with appropriate antibodies, as described previously.

[2] = tested on: HCT-116 and SW480 cells; test: WB of EMT and apoptosis markers with ROS scavengers; type: cell-based, Human; conditions: 20 μM SFI003 with 5 mM NAC or 100 μM Trolox, 72 h
Method: as §1

[3] = tested on: ROS; test: Detection of ROS (DCFH-DA) in HCT-116 and SW480 cells; type: cell-based, Human; conditions: 72 h
Method: Following treatment with SFI003 or siRNA, the cells were washed with PBS and incubated with DCFH-DA for 20 min at 37 °C. After washing three times, the cells were collected and measured at 488 nm excitation and 525 nm emission by a microplate reader (Tecan, Switzerland) according to the manufacturer’s instructions (Beyotime, Shanghai, China). The protein concentrations were determined by using a BCA assay (TaKaRa, Kusatsu, Japan).

[4] = Pharmacokinetics in ICR mice; type: in vivo; conditions: mouse, plasma
Method: 29 the blood samples by centrifuging at 5,000 rpm under 4℃ for 5 min. […]
(§2) 33 or tissue sample was added into 100 µl acetonitrile containing internal standard
(§3) 34 Tolbutamide. The mixture was vortexed for 3 min and centrifuged at 13,000 rpm for 10
(§4) 35 min. An aliquot of 10 µl resulting supernatant was injected to LC -MS/MS system
(§5) 36 (API4000 QTrap; AB Sciex) for compound analysis. The analytes were separated in a
(§6) 37 Venusil XBP-C18 column (2.1×50 mm, 5 μm; Agela, China) using the mixture of 5mM
(§7) 38 NH4OAc-0.1% formic acid (A) and methanol (B) as mobile phase. The gradient
(§8) 39 condition was: 1.3 min, 2%B; 2.0 min, 90%B; 3.5 min, 90%B; 3.8 min, 2%B. The elutes
(§9) 40 were detected by MS/MS spectrometry using ESI positive mode with m/z 271.1>172.2,
(§10) 42 SFI003. […]
52 Druggability evaluation of SFI003
53 Next, we evaluated the druggability of SFI003. We first examined the
54 pharmacokinetic properties of SFI003 in mice. We measured the plasma concentration
55 of SFI003 in mice after oral administration of 100 mg/kg SFI003.

[5] = tested on: SW480 cells; test: MTT assay in SW480 cells; type: cell-based, Human
Method: (§11) Human CRC cell lines were purchased from the American Type Culture Collection (VA, USA). HCT-116 cells were cultured in DMEM (HyClone, Utah, USA) containing 10% fetal bovine serum (FBS; Gibco, NY, USA). SW480 cells were cultured in RPMI 1640 medium (HyClone, Utah, USA) containing 10% FBS. All cells were cultured in an incubator (Thermo, CA, USA) at a constant temperature of 37 °C and 5% CO2. N-Acetylcysteine (NAC), Trolox, MLN4924, 5-Fu, and capecitabine were purchased from MedChemExpress LLC (Shanghai, China). MG132 was purchased from Santa Cruz Biotech (CA, USA). Chloroquine (CHQ) was purchased from Sigma (CA, USA). Rapamycin was purchased from Beyotime (Shanghai, China). Primary antibodies against SRSF3 and E-Cadherin were purchased from Abcam (Cambridge, UK). Primary antibodies against N-Cadherin, Caspase 3, DHCR24, CAT, Akt and phospho-Akt (Ser473) were purchased from Cell Signaling Technology (MA, USA). Primary antibodies against β-actin, mTOR, and phospho-mTOR ([…]) were purchased from Beyotime (Shanghai, China). Primary antibody against Vimentin was purchased from Proteintech (Wuhan, China). Primary antibody against Bcl-2 was purchased from Santa Cruz Biotech (CA, USA). Primary antibody against Flag was purchased from MBL Beijing Biotech (Beijing, China). CRC cells were transfected with 100 nM siRNA or treated with various doses of SFI003 for 24 h, 48 h, or 72 h before being subjected to MTT assay as described previously.

[6] = tested on: SW480 xenografts; test: SW480 xenografts in SCID mice; type: in vivo
Method: (§12) To explore the effect of SFI003 on the growth of CRC, approximately 3 × 10^6 HCT-116 cells or 8 × 10^6 SW480 cells were collected and mixed with Matrigel (Corning, NY, USA) at a 1:1 ratio by volume and then injected into the lower back region of mice. When tumors were palpable, mice were randomly divided into four groups. One group received vehicle as a control, while the other three groups were orally administered SFI003 at a dosage of 100 or 200 mg/kg or capecitabine at a dosage of 100 mg/kg for two continuous weeks. The tumor sizes and mouse body weights were monitored every other day. At the end of the experiment, tumors and blood samples were collected for further studies. The tumor size was evaluated according to Eq.: tumor size (mm^3) = (length × width^2) × 0.5.

[7] = Tissue distribution in ICR mice; type: in vivo; conditions: oral 100 mg/kg
Method: 29 the blood samples by centrifuging at 5,000 rpm under 4℃ for 5 min. For
30 determination of SFI003 concentration in mice tissues, the male ICR mice (n=3) were
31 orally administrated with 100mg/kg SFI003, and the liver and kidney of the mice were
32 collected at 0.25, 0.5, 1, 2, 4, 8, and 12 h after administration. An aliquot of 25 µl plasma
as §2, §3, §4, §5, §6, §7, §8, §9, §10

[8] = tested on: HCT-116 xenografts; test: HCT-116 xenografts in SCID mice; type: in vivo; conditions: two weeks; for number of tumors that disappeared: HCT-116 xenografts
Method: as §12

[9] = tested on: DHCR24; test: RT-PCR and WB of DHCR24 in HCT-116 and SW480 cells; type: cell-based, Human; conditions: HCT-116 and SW480, 20 μM, 72 h
Method: (§13) HCT-116 and SW480 cells were transfected with 100 nM siRNA for 48 h or treated with SFI003 for 72 h. Total RNA was isolated by using TRIzol (Invitrogen, CA, USA) according to the manufacturer’s instructions and then was reversely transcribed into cDNA with random primers (TaKaRa, Kusatsu, Japan) and RT-Kit (Thermo, CA, USA). The cDNA was amplified by PCR using the primers listed in Supplementary Table 1.
as §1

[10] = Metabolic stability in human liver microsomes; type: in vitro ADME
[11] = tested on: Akt-mTOR pathway; test: WB of p-Akt and p-mTOR in HCT-116 and SW480 cells; type: cell-based, Human; conditions: HCT-116 and SW480, 20 μM, 72 h
Method: as §1

[12] = Pharmacokinetics in ICR mice; type: in vivo; conditions: mouse, plasma, iv, 10 mg/kg
[13] = Plasma protein binding; type: in vitro ADME; conditions: read-out: plasma protein binding rate (converted)
[14] = tested on: HCT-116 cells; test: MTT assay in HCT-116 cells; type: cell-based, Human
Method: as §11

[15] = tested on: HCT-116 and SW480 cells; test: Wound-healing and Transwell migration assays; type: cell-based, Human; conditions: HCT-116 and SW480, 10 μM, 24 h
Method: HCT-116 and SW480 cells were seeded into six-well plates in confluent monolayers. Then, the cells were transfected with 100 nM siRNA or treated with 10 μM SFI003. Scratch wounds were created using a sterilized tip in 0.5% serum medium. Images were captured at 0 h, 24 h, and 72 h after wounding. Three independent measurements of wound width were conducted.
HCT-116 and SW480 cells (1 × 10^5) were resuspended in 200 µl medium containing 0.1% serum and then added to the upper compartment of migration chambers (Costar, Corning, NY, USA). The bottom chamber was filled with 600 µl cell culture medium with 20% FBS as an attractant. After coculture for 24 h or 48 h, the cells were fixed in 4% paraformaldehyde and stained with 0.1% crystal violet. The stained cells in 8 random fields were counted at ×100 magnification. Three independent measurements were conducted.

[16] = tested on: CCDC50S, p53α and p53β mRNA; test: RT-PCR of SRSF3 target gene mRNA in HCT-116 and SW480 cells; type: cell-based, Human; conditions: 20 μM, 72 h
Method: as §13

[17] = Metabolic stability in rat liver microsomes; type: in vitro ADME
[18] = Serum biochemical analysis / tolerability in treated mice; type: in vivo
Method: as §12

[19] = read-out: intrinsic clearance (converted)
[20] = SFI003-treated tumor-bearing mice

In the case of `CC(C)C[C@@H](C=O)NC(=O)[C@H](CC(C)C)NC(=O)[C@H](CC(C)C)NC(=O)OCc1ccccc1` [MG132] (Cbz-Leu-Leu-Leu-aldehyde), the “effect on SFI003-induced SRSF3 degradation” value [1] was “rescued”.
In the case of `NS(=O)(=O)OC[C@@H]1C[C@@H](n2ccc3c(N[C@H]4CCc5ccccc54)ncnc32)C[C@@H]1O` [MLN4924], the “effect on SFI003-induced SRSF3 degradation” value [1] was “rescued”.
For `CC(=O)N[C@@H](CS)C(=O)O` [NAC, N-Acetylcysteine], the “effect on SFI003-induced apoptosis and migration disability” value [2] was “reversed” and the “effect on SFI003-induced ROS” value ([3]; 20 μM SFI003 with 5 mM NAC or 100 μM Trolox) was “significantly reversed”.
For `COc1ccc(-c2csc(N/N=C(\C)c3nc4ccccc4[nH]3)n2)cc1` [SFI003], the bioavailability ([4]; oral, p.o. 100 mg/kg vs i.v. 10 mg/kg, read-out: F (bioavailability)) was 52.5%, the AUC(0-inf) ([4]; po, 100 mg/kg) was 30900 ng·h/mL and the AUC(0-t) ([4]; po, 100 mg/kg) was 30900 ng·h/mL. The Tmax ([4]; po, 100 mg/kg) was 2 h, the half-life ([4]; po, 100 mg/kg) was 112 min and the MRT inf ([4]; po, 100 mg/kg, read-out: MRTINF_obs) was 4.66 h. For the same compound, the Cmax ([4]; po, 100 mg/kg) was 4440 ng/mL, the pIC50 ([5]; Homo sapiens, SW480 cells, 72 h) was 4.31 and the “cytotoxicity after SRSF3 silencing” value ([5]; SW480, SRSF3 siRNA 24 h, then 50 μM for 72 h) was “eliminated”. For the same compound, the inhibition of proliferation ([5]; SW480, various doses, 24, 48 and 72 h) was “dose- and time-dependent”, the “growth of SW480 xenografts” value ([6]; 100 or 200 mg/kg orally, two weeks, dose-dependent) was “efficiently suppressed” and the body weight ([6]; SW480 tumor-bearing mice, oral, two weeks) was “slight reduction”. The “antitumor activity compared with capecitabine” value ([6]; SW480 xenografts, oral, two weeks, capecitabine 100 mg/kg) was “stronger inhibitory activity than capecitabine; also recorded: more potent antitumor efficacy than capecitabine”, the “concentration of SFI003 in tumors versus plasma” value ([6]; mice grafted with SW480 cells, 100 mg/kg, 2 h) was “close to the plasma” and the “level of SRSF3 protein” value ([1]; HCT-116 and SW480 cells, various doses, 72 h) was “apparently reduced”. For the same compound, the “distribution to liver and kidney” value [7] was “highly accumulated”, the “growth of HCT-116 xenografts” value ([8]; 100 or 200 mg/kg orally, dose-dependent) was “efficiently suppressed” and the “number of tumors that disappeared” value ([8]; 100 mg/kg orally, 100 mg/kg) was “two and two of six”. For the same compound, the “number of tumors that disappeared” value ([8]; 200 mg/kg orally) was “three”, the “DHCR24 mRNA and protein” value [9] was “inhibited” and the half time [10] was 31.50 min. The CLint scaled [10, 19] was 55.2 mL/min/kg, the “activities of Akt (p-Akt) and mTOR (p-mTOR)” value [11] was “inhibited” and the AUC(0-inf) [12] was 5890 ng·h/mL. It also gave an AUC(0-t) [12] of 5890 ng·h/mL, a half-life [12] of 24 min and an MRT inf ([12]; read-out: MRTINF_obs) of 26.4 min. The Vd ([12]; read-out: Vss) was 0.75 L/kg, the ROS level ([3]; HCT-116 and SW480, 10, 20 and 50 μM, dose-dependent) was “significantly enhanced” and the fraction unbound [13] was 0.586. For the same compound, the “cytotoxicity after SRSF3 silencing” value ([14]; HCT-116, SRSF3 siRNA 24 h, then 10 μM for 72 h) was “eliminated”, the inhibition of proliferation ([14]; HCT-116, various doses, 24, 48 and 72 h) was “dose- and time-dependent” and the “IC50 compared with the other synthesized compounds” value ([14]; HCT-116 cells, 72 h) was “the most potent compound with the lowest IC50 value”. The pIC50 ([14]; Homo sapiens, HCT-116 cells, 72 h) was 5.06, the “migration of CRC cells” value [15] was “repressed” and the “mRNA level of CCDC50S” value [16] was “markedly reduced”. For the same compound, the “mRNA level of p53α” value [16] was “markedly reduced”, the “mRNA level of p53β” value [16] was “elevated” and the half time [17] was 53.31 min. For the same compound, the CLint scaled [17, 19] was 46.7 mL/min/kg, the “serum ALP, ALT, AST, GGT” value [18, 20] was “no alteration” and the “serum CRE and URE” value [18, 20] was “moderate”. The tolerability in vivo ([18]; mice) was “well tolerated”.
